Measured values: US5118705A, “Water soluble salts of purpuromycin and pharmaceutical formulations thereof” (Gruppo Lepetit S.p.A., priority 1990, dated 1992)
Values after ≈ are worked out from the molar mass of the structure shown. Structures can show the parent of a compound that is named as a salt. Where two headings read alike, the source gives them in different places. Blank lines part the entries; values can stand above or below the compound they belong to.

Legend:
[1] = test system: Gardnerella vaginalis ATCC 14018 and other 11 clinical isolates; experiment: Activity against Gardnerella vaginalis, standard two fold dilution methods
Description: The strains were grown on Casman medium (Difco) plus 5% (v/v) whole rabbit blood and 0.15 (v/v) lysed rabbit blood. Inoculum size: approximately 10^4 colony forming units per spot. Incubation in an anaerobic hood: 48 hours at 37° C.

[2] = test system: Trichomonas vaginalis strain TVL; experiment: Activity against Trichomonas vaginalis, two-fold tube dilution method; type: cell-based
Description: Trichomonas vaginalis (applicant's internal code TVL) was grown on Trichomonas Culture Medium Base (Merck) plus 10% heat treated horse serum. Inoculum: approximately 10^5 organisms/ml. Incubation: 48 hours at 37° C.

[3] = test system: Candida albicans strain SKF 2270; experiment: Topical antifungal activity in ovariectomized rats (yeast vaginal infection); type: in vivo, rats (Charles River); settings: twice daily for three days
Description: The effectiveness of the water soluble salts of purpuromycin in the topical treatment of yeast vaginal infection was also tested in ovariectomized rats (Charles River) treated subcutaneously with 4 mg of estradiol benzoate approximately two weeks after ovariectomy. Five days later they were inoculated intravaginally with approximately 5×10^6 colony forming units (CFU) of Candida albicans strain SKF 2270 in 25 microliters of Nutrient Broth (no.2, Oxoid) containing 15% (vol/vol) of glycerol. Topical intravaginal therapy was twice daily for three days, starting one day after infection, with 100 microliters of a water soluble salt of purpuromycin suspension in a mixture of 10:90 DMSO-polyethylene glycol 400, corresponding to 2 or 5 mg/rat/treatment. The day after the last treatment, vaginal smear samples (calibrated 10 microliter loops) were diluted and plated for viable organism counts on Sabouraud agar (Difco). Each group contained 10 animals.

[4] = test system: Trichomonas vaginalis TVL; experiment: In vitro activity, M.I.C., microtiter trays; type: cell-based; settings: Trichomonas vaginalis; salts calculated as weight of purpuromycin; 48 h, anaerobic hood, 37° C.
Description: MIC were performed in flat-bottomed microtiter trays, with 0.2 ml per well. The medium was TYM modified basal medium (Merck) plus 10% horse serum (treated to inactivate complement). The inoculum was ca. 10^5 organisms/ml; incubation was for 48 h in an anaerobic hood (37° C.).The microtiter wells were read using an inverted light microscope. The MIC was taken as the lowest concentration at which no live (mobile) protozoa were seen.

[5] = test system: Neisseria gonorrhoeae L 997; experiment: In vitro activity, M.I.C., microbroth dilution; type: cell-based; settings: Neisseria gonorrhoeae, L997; salts calculated as weight of purpuromycin; 37° C., 48 h, 5% CO2
Description: (§1) MIC were determined by the microbroth dilution test. Bacteria were grown at 37° C., fungi at 30° C. Incubation was for 20 h, except for Propionibacterium acnes, Bacteroides fragilis, Neisseria gonorrhoeae, Haemophilus influenzae (48 h) and Trichophyton mentagrophytes (72h) Neisseria gonorrhoeae and Haemophilus influenzae were incubated in a CO2 -enriched (5%) atmosphere; Propionibacterium acnes and Bacteroides fragilis in an anaerobic hood. Media used were: Oxoid Iso-sensitest broth (Staphylococci, Enterococcus faecalis and Escherichia coli); Difco Todd-Hewitt broth (streptococci); Difco GC base broth with 1% BBL IsoVitaleX (Neisseria gonorrhoeae); Difco Brain-Heart Infusion broth with 1% Difco supplement C (Haemophilus influenzae); Difco Wilkins-Chalgren broth (Propionibacterium acnes and Bacteroides fragilis); Difco Yeast Nitrogen Base broth with 1.5 g/1 asparagine (Candida albicans); Difco Sabouraud-dextrose broth (Trichophyton mentagrophytes). Inocula were approximately 10^4 CFU/ml.

[6] = test system: Bacteroides fragilis ATCC 23745; experiment: In vitro activity, M.I.C., microbroth dilution; type: cell-based; settings: Bacteroides fragilis, ATCC23745; salts calculated as weight of purpuromycin; 37° C., 48 h, anaerobic hood
Description: as §1

[7] = test system: Candida albicans SKF 2270; experiment: In vitro activity, M.I.C., microbroth dilution; type: cell-based; settings: Candida albicans, SKF2270; salts calculated as weight of purpuromycin; 30° C., 20 h
Description: as §1

[8] = test system: Haemophilus influenzae ATCC 19418; experiment: In vitro activity, M.I.C., microbroth dilution; type: cell-based; settings: salts calculated as weight of purpuromycin; 37° C., 48 h, 5% CO2
Description: as §1

Staph. aureus Tour L 165 = experiment: In vitro activity, M.I.C., microbroth dilution; type: cell-based; settings: Staphylococcus aureus, TOURL165; salts calculated as weight of purpuromycin; 37° C., 20 h
Description: as §1

[9] = test system: Enterococcus faecalis ATCC 7080; experiment: In vitro activity, M.I.C., microbroth dilution; type: cell-based; settings: Enterococcus faecalis, ATCC7080; salts calculated as weight of purpuromycin; 37° C., 20 h
Description: as §1

[10] = test system: Escherichia coli SKF 12140; experiment: In vitro activity, M.I.C., microbroth dilution; type: cell-based; settings: salts calculated as weight of purpuromycin; 37° C., 20 h
Description: as §1

Strep. pyogenes L49 = experiment: In vitro activity, M.I.C., microbroth dilution; type: cell-based; settings: Streptococcus pyogenes, L49; salts calculated as weight of purpuromycin; 37° C., 20 h
Description: as §1

[11] = test system: Staph. epidermidis ATCC 12228; experiment: In vitro activity, M.I.C., microbroth dilution; type: cell-based; settings: Staphylococcus epidermidis, ATCC12228; salts calculated as weight of purpuromycin; 37° C., 20 h
Description: as §1

Staph. haemolyticus L602 = experiment: In vitro activity, M.I.C., microbroth dilution; type: cell-based; settings: Staphylococcus haemolyticus, L602; salts calculated as weight of purpuromycin; 37° C., 20 h
Description: as §1

[12] = test system: Trichophyton mentagrophytes SKF 17410; experiment: In vitro activity, M.I.C., microbroth dilution; type: cell-based; settings: Trichophyton mentagrophytes, SKF17410; salts calculated as weight of purpuromycin; 30° C., 72 h
Description: as §1

Strep. pneumoniae L44 = experiment: In vitro activity, M.I.C., microbroth dilution; type: cell-based; settings: salts calculated as weight of purpuromycin; 37° C., 20 h
Description: as §1

[13] = test system: Propionibacterium acnes ATCC 6919; experiment: In vitro activity, M.I.C., microbroth dilution; type: cell-based; settings: Cutibacterium acnes, ATCC6919; salts calculated as weight of purpuromycin; 37° C., 48 h, anaerobic hood
Description: as §1

[14] = Solubility and pH of solution; type: physicochemical
Gardnerella vaginalis = experiment: In vitro activity, M.I.C., agar dilution; type: cell-based; settings: Gardnerella vaginalis; salts calculated as weight of purpuromycin; ATCC 14018 and 10 clinical isolates, all same M.I.C.; inoculum ca. 10^5 CFU, 48 h
Description: **The assay was carried out on strain ATCC 14018 and 10 clinical isolates
Incubation was for 48 h in an anaerobic hood (37° C.); inoculum ca. 10^5 CFU.

[15] = test system: Candida albicans SKF 2270; experiment: Activity against Candida strains, two-fold dilution method; type: cell-based; settings: Candida albicans, SKF2270, 20 h; comparative tests, antibacterial agents; read-out: M.I.C.
Description: (§2) This set of experiments included also one strain each of two other Candida species, Candida tropicalis and Candida kruzei. The M.I.C. were determined by the two-fold dilution method in buffered (0.01 M phosphate buffer, pH 7.4) yeast nitrogen base medium (Difco) supplemented with 1.5 g/liter asparagine in microtiter trays. Inocula were approximately 10^4 colony forming units/ml. Incubation was for 20 h at 30° C. Purpuromycin was dissolved in DMSO and added to the cultures as above.

[16] = test system: Candida albicans ATCC 10231; experiment: as above; type: cell-based; settings: Candida albicans, ATCC10231, 20 h; comparative tests, antibacterial agents; read-out: M.I.C.
Description: as §2

Structure (SMILES): Clc1ccccc1C(c1ccccc1)(c1ccccc1)n1ccnc1 [Clotrimazole]
Number of strains with MIC of 8 mcg/ml ([1]; MIC 8 mcg/ml, 12 strains tested): 2 strains
Number of strains with MIC of 16 mcg/ml ([1]; MIC 16 mcg/ml, 12 strains tested): 1 strains
Number of strains with MIC of 32 mcg/ml ([1]; MIC 32 mcg/ml, 12 strains tested): 2 strains
Number of strains with MIC of >128 mcg/ml ([1]; MIC >128 mcg/ml, 12 strains tested): 2 strains
MIC ([2]; Trichomonas vaginalis, 48 h): 64 mg/L (≈ 186 µM)

Structure (SMILES): COC(=O)c1cc2cc3c(c(O)c2c(=O)o1)OC1(Cc2c(O)c4c(c(O)c2O1)C(=O)C(OC)=CC4=O)CC3O [Purpuromycin salt with L-lysine (1:1.5), Salt of purpuromycin with L-lysine]
Mean log10 CFU/smear sample ± SD ([3]; 2 mg/rat/treatment intravaginal, vehicle 3.87 ± 0.50, P < 0.01 vs group 1 controls): 2.60 ± 0.49 log10 CFU/smear sample
numbers of viable yeasts cell/sample ([3]; topical intravaginal): significantly reduced numbers of viable yeasts cell/sample
MIC [4]: 4 mg/L
MIC [5]: 0.06 mg/L
MIC [6]: 0.13 mg/L
MIC [7]: 1 mg/L
M.I.C. [8]: 0.13 mg/L
MIC (Staph. aureus Tour L 165): 0.06 mg/L
MIC [9]: 0.06 mg/L
M.I.C. [10]: 32 mg/L
MIC (Strep. pyogenes L49): 0.06 mg/L
MIC [11]: 0.06 mg/L
MIC (Staph. haemolyticus L602): 0.06 mg/L
MIC [12]: 1 mg/L
M.I.C. (Strep. pneumoniae L44): 0.13 mg/L
MIC [13]: 0.06 mg/L
pH value of a 0.5% (w/v) solution ([14]; distilled water): 8.5
solubility in distilled water ([14]; room temperature, calculated as purpuromycin, listed as Example 2): 7.4 mg/mL
MIC (Gardnerella vaginalis): 16 mg/L

Structure (SMILES): C[C@@H]1[C@H](O)[C@@H](C)/C=C/C=C/CC/C=C/C=C/C=C/C=C/C(O[C@H]2O[C@H](C)[C@@H](O)[C@H](N)[C@@H]2O)CC2O[C@](O)(CC(O)C(O)CCC(O)CC(O)CC(O)CC(=O)O[C@H]1C)CC(O)C2C(=O)O (some centres unmarked) [Nystatin]
Number of strains with MIC of >128 mcg/ml [1]: 12 strains
MIC on resistant strains ([1]; strains resistant to the named drug): > 128 micrograms/ml
MIC ([2]; 48 hours at 37° C.): > 128 mg/L

Structure (SMILES): C[C@@H]1[C@H](O)[C@@H](C)/C=C/C=C/C=C/C=C/C=C/C=C/C=C/[C@H](O[C@@H]2O[C@H](C)[C@@H](O)[C@H](N)[C@@H]2O)C[C@@H]2O[C@](O)(C[C@@H](O)C[C@@H](O)[C@H](O)CC[C@@H](O)C[C@@H](O)CC(=O)O[C@H]1C)C[C@H](O)[C@H]2C(=O)O [Amphotericin B]
MIC ([2]; Trichomonas vaginalis, 48 h): 64 mg/L (≈ 69.3 µM)

More lines, now with the values ahead:

MIC [15]: > 128 mg/L
MIC [16]: > 128 mg/L
Structure (SMILES): CN[C@@H]1[C@H](O)[C@H](NC)[C@H]2O[C@@]3(O)C(=O)C[C@@H](C)O[C@H]3O[C@@H]2[C@H]1O [spectinomycin]

MIC ([2]; Trichomonas vaginalis, 48 hours at 37° C., read-out: MIC): > 128 mg/L
Structure (SMILES): CC(=O)N1CCN(c2ccc(OCC3COC(Cn4ccnc4)(c4ccc(Cl)cc4Cl)O3)cc2)CC1 (centres unmarked) [Ketoconazole]

MIC [15]: > 128 mg/L
MIC [16]: > 128 mg/L
Structure (SMILES): CC1=C(C(=O)O)N2C(=O)[C@@H](NC(=O)[C@H](N)c3ccccc3)[C@H]2SC1 [cefalexin]

MIC [15]: > 128 mg/L
MIC [16]: > 128 mg/L
Structure (SMILES): O=C(Cc1cccs1)N[C@@H]1C(=O)N2C(C(=O)[O-])=C(C[n+]3ccccc3)CS[C@H]12 [cephaloridine]
